Measurements taken from paper PMC6237300, “Influenza B viruses circulated during last 5 years in Mongolia” (PLoS ONE, 2018).
pIC50: −log10 of the molar value.

Tests used:
[1] = biological target: NA of B/Ulaanbaatar/1113/2014 (I114T) (Influenza B virus, UniProt U5XBU0, I114T); type: biochemical
[2] = biological target: NA of B/Khentii/1137/2014 (G140R) (Influenza B virus, UniProt U5XBU0, G140R); type: biochemical
[3] = biological target: NA of B/Darkhan/1484/2014 (H101N, E105K) (Influenza B virus, UniProt U5XBU0, E105K/H101N); type: biochemical
[4] = biological target: NA of B/Ulaanbaatar/1495/2014 (E105K) (Influenza B virus, UniProt U5XBU0, E105K); type: biochemical
[5] = biological target: NA of B/Ulaanbaatar/1708/2014 (G104R) (Influenza B virus, UniProt U5XBU0, G104R); type: biochemical
[6] = tested on: neuraminidase of the influenza B virus with H273Y mutation; conditions: cited from earlier work

Row | Compound | susceptibility category [1] | susceptibility category [2] | susceptibility category [3] | susceptibility category [4] | Fold increase [1] | pIC50 [1] | Fold increase [2] | pIC50 [2] | Fold increase [3] | pIC50 [3] | Fold increase [4] | pIC50 [4] | Fold increase [5] | pIC50 [5] | resistance of H273Y mutant [6]
1 | [H]/N=C(\N)N[C@H]1C=C(C(=O)O)O[C@@H]([C@H](OC)[C@H](O)CO)[C@@H]1NC(C)=O [Laninamivir, laninamivir] | sensitive | sensitive | reduced susceptibility | reduced susceptibility | – | – | – | – | – | – | – | – | – | – | –
2 | CCC(CC)[C@H](NC(C)=O)[C@@H]1[C@H](O)[C@@H](C(=O)O)C[C@H]1N=C(N)N [Peramivir, peramivir] | reduced susceptibility | reduced susceptibility | highly reduced susceptibility | highly reduced susceptibility | 10 | 7.93 | 10 | 8.14 | 2500 | 5.82 | 5000 | 5.48 | >100000 | 3.54 | resistant
